In ChEMBL document CHEMBL5321215, “Discovery of quinazolin-4(3H)-one derivatives as novel AChE inhibitors with anti-inflammatory activities” (Eur J Med Chem, 2023):
Active and inactive are the calls of the source. The rule behind the calls is not given here.

Legend:
Cholinesterase [1] = molecular target: Cholinesterase (Equus caballus, UniProt P81908); experiment: Inhibition of equine serum BChE by Ellman's method; assay type: cell-free
[2] = molecular target: Acetylcholinesterase (Electrophorus electricus) (UniProt O42275); experiment: Non competitive inhibition of Electric eel AChE using acetylthiocholine iodide as substrate assessed as decrease in Vmax with constant Km by Lineweaver-Burk plot analysis
[3] = molecular target: Cholinesterase (Equus caballus) (UniProt P81908); experiment: Non competitive inhibition of equine serum BChE assessed as decrease in Vmax with constant Km by Lineweaver-Burk plot analysis; assay type: cell-free
Acetylcholinesterase [4] = molecular target: Acetylcholinesterase (Electrophorus electricus, UniProt O42275); experiment: Inhibition of electric eel AChE using acetylthiocholine iodide as substrate incubated for 20 mins by Ellman's method
[5] = molecular target: Acetylcholinesterase (Electrophorus electricus) (UniProt O42275); experiment: Inhibition of electric eel AChE using acetylthiocholine iodide as substrate at 20 uM incubated for 20 mins by Ellman's method relative to control
[6] = molecular target: Cholinesterase (Equus caballus) (UniProt P81908); experiment: Inhibition of equine serum BChE at 20 uM by Ellman's method relative to control; assay type: cell-free
BV-2 [7] = experiment: Cytotoxicity against mouse BV-2 cells assessed as reduction in cell viability at 10 uM incubated for 24 hrs by CCK-8 assay; assay type: toxicity, cell-based; conditions: bv-2, 24 h
RAW264.7 [8] = experiment: Antiinflammatory activity against mouse RAW264.7 cells assessed as inhibition of LPS-induced nitric oxide production at 20 uM preincubated for 24 hrs followed by LPS stimulation by Griess reagent-based colorimetric assay relative to control; assay type: functional; set-up: scale not given: the % may be the effect or the level left
Acetylcholinesterase [9] = molecular target: Acetylcholinesterase (Homo sapiens, UniProt P22303); experiment: Inhibition of AChE (unknown origin)
Cholinesterase [10] = molecular target: Cholinesterase (Homo sapiens, UniProt P06276); experiment: Inhibition of BChE (unknown origin)
BV-2 [11] = experiment: Effect on JNK protein level in LPS-induced mouse BV-2 cells at 10 uM incubated for 24 hrs by Western blot analysis; assay type: functional, cell-based
BV-2 [12] = experiment: Inhibition of NF-kappaB pathway in LPS-induced mouse BV-2 cells assessed as reduction in p65 protein expression level at 10 uM incubated for 24 hrs by Western blot analysis; assay type: cell-based
BV-2 [13] = experiment: Antiinflammatory activity against mouse BV-2 cells assessed as reduction in LPS-induced TNF-alpha mRNA expression measured after 24 hrs by qRT-PCR analysis; assay type: functional, cell-based; conditions: dose 1.25-10 µM
BV-2 [14] = experiment: Inhibition of NF-kappaB pathway in LPS-induced mouse BV-2 cells assessed as reduction in phosphorylated p65 protein expression level at 10 uM incubated for 24 hrs by Western blot analysis; assay type: cell-based
BV-2 [15] = experiment: Inhibition of MAPK/JNK signalling pathway in LPS-induced mouse BV-2 cells assessed as reduction in JNK phosphorylation level at 10 uM incubated for 24 hrs by Western blot analysis; assay type: cell-based
[16] = molecular target: NACHT, LRR and PYD domains-containing protein 3 (Mus musculus) (UniProt Q8R4B8); experiment: Inhibition of NLRP3 inflammasome in LPS-induced mouse BV-2 cells assessed as decrease in NLRP3 protein expression at 10 uM incubated for 24 hrs by Western blot analysis; assay type: cell-based
BV-2 [17] = experiment: Antiinflammatory activity against mouse BV-2 cells assessed as reduction in LPS-induced IL-1beta mRNA expression measured after 24 hrs by qRT-PCR analysis; assay type: functional, cell-based; conditions: dose 1.25-10 µM
BV-2 [18] = experiment: Antiinflammatory activity against mouse BV-2 cells assessed as reduction in LPS-induced CCL2 mRNA expression measured after 24 hrs by qRT-PCR analysis; assay type: functional, cell-based; conditions: dose 1.25-10 µM
BV-2 [19] = experiment: Antiinflammatory activity against mouse BV-2 cells assessed as reduction in LPS-induced IL-6 mRNA expression level measured after 24 hrs by qRT-PCR analysis; assay type: functional, cell-based; conditions: dose 1.25-10 µM
RAW264.7 [20] = experiment: Antiinflammatory activity against mouse RAW264.7 cells assessed as inhibition of LPS-induced nitric oxide production preincubated for 24 hrs followed by LPS stimulation by Griess reagent-based colorimetric assay; assay type: functional, cell-based

Cholinesterase (Equus caballus), sequence (P81908 whole entry): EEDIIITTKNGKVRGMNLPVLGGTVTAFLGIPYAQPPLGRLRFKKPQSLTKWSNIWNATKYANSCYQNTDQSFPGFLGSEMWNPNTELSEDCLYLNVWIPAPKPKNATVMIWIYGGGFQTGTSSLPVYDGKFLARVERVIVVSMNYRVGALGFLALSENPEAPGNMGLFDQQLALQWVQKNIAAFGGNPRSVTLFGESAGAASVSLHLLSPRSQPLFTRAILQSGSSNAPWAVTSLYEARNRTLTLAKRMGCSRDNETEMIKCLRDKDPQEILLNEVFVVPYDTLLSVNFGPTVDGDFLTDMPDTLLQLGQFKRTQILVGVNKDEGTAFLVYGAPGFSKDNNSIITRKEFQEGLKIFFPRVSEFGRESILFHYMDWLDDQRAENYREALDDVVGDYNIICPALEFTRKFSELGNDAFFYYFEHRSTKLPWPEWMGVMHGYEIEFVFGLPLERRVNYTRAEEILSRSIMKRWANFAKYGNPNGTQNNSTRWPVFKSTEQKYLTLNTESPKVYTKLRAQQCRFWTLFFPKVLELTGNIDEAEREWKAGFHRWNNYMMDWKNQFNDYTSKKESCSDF
Cholinesterase (Equus caballus, UniProt P81908), sequence (P81908 whole entry): as above
Acetylcholinesterase (Electrophorus electricus, UniProt O42275), sequence (O42275 whole entry): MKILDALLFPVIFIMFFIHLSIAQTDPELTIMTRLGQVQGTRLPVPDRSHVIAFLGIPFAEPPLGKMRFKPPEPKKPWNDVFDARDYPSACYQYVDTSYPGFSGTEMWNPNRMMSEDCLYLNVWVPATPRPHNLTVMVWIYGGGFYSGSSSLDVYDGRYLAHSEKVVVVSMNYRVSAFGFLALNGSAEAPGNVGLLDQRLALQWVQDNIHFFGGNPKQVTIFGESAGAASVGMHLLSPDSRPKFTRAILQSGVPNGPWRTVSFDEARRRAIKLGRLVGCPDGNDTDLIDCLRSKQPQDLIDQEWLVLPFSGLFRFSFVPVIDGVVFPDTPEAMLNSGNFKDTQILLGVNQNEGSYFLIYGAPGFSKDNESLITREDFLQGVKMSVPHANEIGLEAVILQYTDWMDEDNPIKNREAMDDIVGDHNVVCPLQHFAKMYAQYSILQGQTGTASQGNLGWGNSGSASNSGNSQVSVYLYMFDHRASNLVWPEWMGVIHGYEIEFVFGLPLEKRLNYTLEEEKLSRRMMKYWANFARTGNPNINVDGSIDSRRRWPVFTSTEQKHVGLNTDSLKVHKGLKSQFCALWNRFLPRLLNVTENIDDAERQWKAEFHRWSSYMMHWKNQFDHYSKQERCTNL
Acetylcholinesterase (Electrophorus electricus), sequence (O42275 24-633 limits assumed): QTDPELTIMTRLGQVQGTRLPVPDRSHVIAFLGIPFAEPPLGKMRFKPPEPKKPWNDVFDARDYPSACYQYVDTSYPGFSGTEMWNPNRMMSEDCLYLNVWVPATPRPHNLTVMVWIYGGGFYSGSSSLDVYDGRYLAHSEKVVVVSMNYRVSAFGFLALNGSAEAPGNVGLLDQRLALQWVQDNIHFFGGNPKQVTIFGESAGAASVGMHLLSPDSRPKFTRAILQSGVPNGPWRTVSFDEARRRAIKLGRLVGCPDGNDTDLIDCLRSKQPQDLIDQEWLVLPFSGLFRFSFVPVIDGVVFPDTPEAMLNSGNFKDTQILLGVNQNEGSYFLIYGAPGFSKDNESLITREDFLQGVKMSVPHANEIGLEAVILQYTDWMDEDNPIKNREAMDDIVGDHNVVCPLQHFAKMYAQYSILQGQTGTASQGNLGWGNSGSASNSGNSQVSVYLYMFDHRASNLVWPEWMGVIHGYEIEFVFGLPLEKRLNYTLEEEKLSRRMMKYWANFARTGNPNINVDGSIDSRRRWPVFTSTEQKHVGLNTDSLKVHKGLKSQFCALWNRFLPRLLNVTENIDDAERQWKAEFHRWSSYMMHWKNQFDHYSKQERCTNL
NACHT, LRR and PYD domains-containing protein 3 (Mus musculus), sequence (Q8R4B8 whole entry, the tested form may be a part): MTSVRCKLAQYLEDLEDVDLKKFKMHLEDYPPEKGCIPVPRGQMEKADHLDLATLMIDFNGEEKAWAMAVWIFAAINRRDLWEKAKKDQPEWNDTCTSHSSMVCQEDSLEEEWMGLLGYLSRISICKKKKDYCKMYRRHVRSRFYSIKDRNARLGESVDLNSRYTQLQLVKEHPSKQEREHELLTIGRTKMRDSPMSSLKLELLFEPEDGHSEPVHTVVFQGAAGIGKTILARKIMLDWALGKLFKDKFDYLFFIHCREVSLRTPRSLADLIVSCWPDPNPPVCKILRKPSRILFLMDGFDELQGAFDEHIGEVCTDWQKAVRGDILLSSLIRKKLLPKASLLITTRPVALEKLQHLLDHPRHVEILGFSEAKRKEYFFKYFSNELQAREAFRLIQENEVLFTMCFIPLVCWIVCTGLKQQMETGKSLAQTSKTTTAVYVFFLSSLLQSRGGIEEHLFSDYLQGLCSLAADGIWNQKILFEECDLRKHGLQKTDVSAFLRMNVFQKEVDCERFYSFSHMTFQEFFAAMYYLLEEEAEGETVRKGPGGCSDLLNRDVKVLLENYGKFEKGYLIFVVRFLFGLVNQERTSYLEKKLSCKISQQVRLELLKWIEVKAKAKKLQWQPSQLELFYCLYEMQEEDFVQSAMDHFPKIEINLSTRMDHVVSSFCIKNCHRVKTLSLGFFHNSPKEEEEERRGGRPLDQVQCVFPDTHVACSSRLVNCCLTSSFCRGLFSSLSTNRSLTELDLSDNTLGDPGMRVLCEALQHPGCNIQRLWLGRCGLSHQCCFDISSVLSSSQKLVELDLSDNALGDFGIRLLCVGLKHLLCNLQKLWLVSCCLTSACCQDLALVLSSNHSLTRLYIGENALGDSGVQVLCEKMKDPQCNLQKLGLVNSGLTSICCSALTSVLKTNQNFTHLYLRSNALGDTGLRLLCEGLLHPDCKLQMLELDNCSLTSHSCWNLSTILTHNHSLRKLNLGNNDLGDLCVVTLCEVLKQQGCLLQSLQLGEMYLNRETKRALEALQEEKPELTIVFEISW
Cholinesterase (Homo sapiens, UniProt P06276), sequence (P06276 whole entry): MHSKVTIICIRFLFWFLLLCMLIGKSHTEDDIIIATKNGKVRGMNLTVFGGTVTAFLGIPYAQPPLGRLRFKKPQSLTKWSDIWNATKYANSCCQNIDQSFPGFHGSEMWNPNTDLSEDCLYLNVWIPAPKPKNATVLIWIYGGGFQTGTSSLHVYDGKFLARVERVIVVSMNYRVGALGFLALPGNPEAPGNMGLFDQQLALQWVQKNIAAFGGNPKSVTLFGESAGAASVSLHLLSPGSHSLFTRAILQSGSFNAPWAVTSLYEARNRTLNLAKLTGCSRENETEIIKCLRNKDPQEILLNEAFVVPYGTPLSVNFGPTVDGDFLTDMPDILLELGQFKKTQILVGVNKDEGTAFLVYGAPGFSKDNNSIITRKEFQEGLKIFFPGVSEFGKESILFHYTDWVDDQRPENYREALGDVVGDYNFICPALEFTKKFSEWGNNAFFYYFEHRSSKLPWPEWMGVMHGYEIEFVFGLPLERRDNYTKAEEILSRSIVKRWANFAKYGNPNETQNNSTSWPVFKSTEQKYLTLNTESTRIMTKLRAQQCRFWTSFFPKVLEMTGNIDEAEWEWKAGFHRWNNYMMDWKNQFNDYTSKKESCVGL
Acetylcholinesterase (Homo sapiens, UniProt P22303), sequence (P22303 whole entry): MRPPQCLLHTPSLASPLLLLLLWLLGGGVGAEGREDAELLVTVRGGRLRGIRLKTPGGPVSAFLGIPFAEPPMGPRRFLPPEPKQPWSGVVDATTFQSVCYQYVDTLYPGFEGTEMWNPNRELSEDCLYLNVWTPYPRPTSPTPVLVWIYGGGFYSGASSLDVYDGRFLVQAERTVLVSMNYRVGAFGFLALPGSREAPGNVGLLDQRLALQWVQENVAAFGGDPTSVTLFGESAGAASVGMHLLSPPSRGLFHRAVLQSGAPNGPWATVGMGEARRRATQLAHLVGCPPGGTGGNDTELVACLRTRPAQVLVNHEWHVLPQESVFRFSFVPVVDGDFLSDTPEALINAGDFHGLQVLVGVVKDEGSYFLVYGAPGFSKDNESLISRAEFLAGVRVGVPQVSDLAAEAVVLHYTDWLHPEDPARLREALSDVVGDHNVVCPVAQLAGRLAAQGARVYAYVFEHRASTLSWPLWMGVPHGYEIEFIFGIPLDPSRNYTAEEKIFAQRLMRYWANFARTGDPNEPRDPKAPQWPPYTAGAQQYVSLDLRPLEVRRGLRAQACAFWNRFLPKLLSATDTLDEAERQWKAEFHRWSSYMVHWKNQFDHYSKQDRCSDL

Structure (SMILES) | inhibition [5] | inhibition [6] | Activity (RAW264.7 [8]) | further results
COc1cc(-c2nc3ccc(NCC4CCN(Cc5ccccc5)CC4)cc3c(=O)[nH]2)cc(OC)c1OC | 69% | 68.6% | 94% | IC50 (Cholinesterase [1]): 11.2 µM; inhibition [2]: Active; inhibition [3]: Active; IC50 (Acetylcholinesterase [4]): 4.31 µM; Activity (BV-2 [7]): Toxic
O=c1[nH]c(C2CCN(Cc3ccccc3)CC2)nc2ccc([N+](=O)[O-])cc12 | 59.6% | inactive | 40.4% | IC50 (Cholinesterase [1]): > 20 µM; IC50 (Acetylcholinesterase [4]): 6.86 µM
COc1cc(OC)c2c(=O)[nH]c(C(=O)c3cc(OC)c(OC)c(OC)c3)nc2c1 | 23.1% | inactive |  | 
CN1CCN(c2ccc(-c3nc4ccc(Br)cc4c(=O)[nH]3)cc2)CC1 | 60.8% | 31.2% | 42.7% | IC50 (Cholinesterase [1]): > 20 µM; IC50 (Acetylcholinesterase [4]): 16.1 µM
COc1cc(OC)c2c(=O)[nH]c(-c3ccc(O[C@@H]4O[C@H](CO)[C@@H](O)[C@@H](O)[C@H]4O)cc3)nc2c1 | 32.8% | 11.3% |  | 
COc1cc(OC)c2c(=O)[nH]c(-c3ccc(N4CCOCC4)cc3)nc2c1 | 47.3% | 16.5% |  | 
CON(C)C(=O)Oc1ccccc1C(=O)NCCc1c[nH]c2ccccc12 |  |  |  | IC50 (Acetylcholinesterase [9]): 3.24 µM; IC50 (Cholinesterase [10]): 1.84 µM
COc1cc(-c2nc3ccc(NC(=O)CCl)cc3c(=O)[nH]2)cc(OC)c1OC | 32.5% | 9.51% |  | 
COc1cc(-c2nc3ccc([N+](=O)[O-])cc3c(=O)[nH]2)cc(OC)c1OC | 2.52% | inactive |  | 
COc1cc(-c2nc3ccc(NC(=O)c4ccc(Cl)cc4)cc3c(=O)[nH]2)cc(OC)c1OC | 10.6% | 14.9% |  | 
COc1cc(-c2nc3ccc(NC(=O)c4ccc(F)cc4)cc3c(=O)[nH]2)cc(OC)c1OC | 6.3% | 12.7% |  | 
COc1cc(OC)c2c(=O)[nH]c(-c3ccc(N4CCN(C)CC4)cc3)nc2c1 | 91.8% | 38.7% | 116.4% | IC50 (Cholinesterase [1]): > 20 µM; inhibition [2]: Active; Activity (BV-2 [11]): Active; inhibition (BV-2 [12]): Active; IC50 (Acetylcholinesterase [4]): 5.04 µM; Activity (BV-2 [13]): Dose-Dependent Effect; inhibition (BV-2 [14]): Active; inhibition (BV-2 [15]): Active; inhibition [16]: Active; Activity (BV-2 [17]): Dose-Dependent Effect; Activity (BV-2 [18]): Dose-Dependent Effect; Activity (BV-2 [19]): Dose-Dependent Effect; IC50 (RAW264.7 [20]): 3.29 µM; Activity (BV-2 [7]): Non-Toxic
CCN(CC)c1ccc(-c2nc3cc(OC)cc(OC)c3c(=O)[nH]2)cc1 | 23.7% | inactive |  | 
COc1cc(OC)c2c(=O)[nH]c(-c3c[nH]cn3)nc2c1 | 40.4% | 13.1% |  | 
C[C@@H]1C[C@H]2[C@@H]3CCC4=CC(=O)C=C[C@]4(C)[C@@]3(F)[C@@H](O)C[C@]2(C)[C@@]1(O)C(=O)CO [DEXAMETHASONE] |  |  | 60.3% | IC50 (RAW264.7 [20]): 11.5 µM
CN1CCN(c2ccc(-c3nc4ccc(N)cc4c(=O)[nH]3)cc2)CC1 | 58.6% | 3.32% |  | 
COc1cc(OC)c2c(=O)[nH]c(C3CCN(Cc4ccccc4)CC3)nc2c1 | 83.4% | 59.1% | 60.5% | IC50 (Cholinesterase [1]): 36.9 µM; IC50 (Acetylcholinesterase [4]): 7.88 µM; IC50 (RAW264.7 [20]): 21.3 µM
COc1cc(-c2nc3ccc(Br)cc3c(=O)[nH]2)cc(OC)c1OC | 33.8% | 12.4% |  | 
COc1cc(-c2nc3ccc(NC(=O)CCN4CCC(O)CC4)cc3c(=O)[nH]2)cc(OC)c1OC | 20.2% | 15.8% |  | 
